SMILES strings stand for the structures.

Among the data in publication PMC10638507 (Acta Pharmaceutica Sinica. B, 2023) are Km values, retold here.

Common to all, as to assay type: biochemical, Paris polyphylla var. yunnanensis
Experiment [1] deals with UGT80A41. Kind of experiment: initial rates of glucoside formation, UPLC-MS/MS, Michaelis-Menten fit. Conditions: read-out: apparent KM; 2 mmol/L UDP-glucose, 50 mmol/L Tris-HCl pH 8.0, 37 °C, 30 min.
Experiment [2] has as its system UGT80A40. The description is as above. Conditions: read-out: apparent KM; 2 mmol/L UDP-glucose, 50 mmol/L Tris-HCl pH 8.0, 37 °C, 30 min.
For experiment [3], the system named is UGT73CE1. Nature of the experiment: initial rates of rhamnoside formation, UPLC-MS/MS, Michaelis-Menten fit. As to conditions: read-out: apparent KM; 1.5 mmol/L UDP-rhamnose, 50 mmol/L Tris-HCl pH 8.0, 37 °C, 30 min.

Take `C[C@@H]1CC[C@@]2(OC1)O[C@H]1C[C@H]3[C@@H]4CC=C5C[C@@H](O)CC[C@]5(C)[C@H]4CC[C@]3(C)[C@H]1[C@@H]2C` [compound 1, diosgenin]: the Km was 5.9 ± 0.5 µM in experiment [1] and 6.1 ± 0.7 µM in experiment [2].

With `C[C@@H]1CC[C@@]2(OC1)O[C@H]1C[C@H]3[C@@H]4CC=C5C[C@@H](O[C@@H]6O[C@H](CO)[C@@H](O)[C@H](O)[C@H]6O)CC[C@]5(C)[C@H]4CC[C@]3(C)[C@H]1[C@@H]2C` [compound 3, trillin], the Michaelis-Menten constant (Km) in experiment [3] came out at 7.1 ± 2.1 µM.
